Patent US20090247527A1, “SUBSTITUTED GAMMA LACTAMS AS THERAPEUTIC AGENTS” (ALLERGAN, INC., priority 2008, published 2009)
“Also recorded” adds a separate entry of the source.

Tested on: lashes and adjacent hairs of patients having glaucoma
Assay: Observation of lashes and adjacent hairs in glaucoma patients treated with bimatoprost in one eye
Type: in vivo, human
Details: glaucoma patients treated unilaterally; gross inspection and slit lamp biomicroscope
From the text: In the course of treating patients having glaucoma, treatment may only be appropriate in one eye. […] The lash appearance on the lids of the treated eyes would have appeared quite attractive if it represented a bilateral phenomenon. As a result of its asymmetric nature, the long lashes on one side could be construed as disturbing from a cosmetic standpoint. A systemic examination was preformed as a result of the asymmetric phenomenon. It soon became apparent that this altered appearance was not an isolated finding. […] Definite differences could be identified to varying degrees in the lashes and adjacent hairs of all patients who were taking the drug on a unilateral basis for longer than 6 months.
The changes in the lashes were apparent on gross inspection in several patients once attention was focused on the issue. In those with light colored hair and lashes, the differences were only seen easily with the aid of the high magnification and lighting capabilities of the slit lamp biomicroscope. In the course of glaucoma follow-up examination, attention is generally immediately focused on the eye itself. As a result of the high power magnification needed only one eye is seen at a time and the eye is seen at a high enough power that the lashes are not in focus. […]

## CCNC(=O)CCC/C=C\C[C@@H]1[C@@H](/C=C/[C@@H](O)CCc2ccccc2)[C@H](O)C[C@@H]1O [bimatoprost]
  lash / hair growth in treated eye versus non-treated eye: longer, thicker, and fuller in the treated eye than in the non-treated eye; also recorded: hair growth is stimulated
